Test results: paper PMC7180839, “Biophysical Screens Identify Fragments That Bind to the Viral DNA-Binding Proteins EBNA1 and LANA” (Molecules, 2020)

Experiments:
EBNA1 (468–607) = molecular target: T1, EBNA1 (468–607) (Epstein-Barr virus, UniProt P03211); test: X-ray crystallography, fragment soaked into preformed EBNA1 crystals; assay type: binding, Epstein–Barr virus (EBV); details: crystal soak 4 h; 1.3 Å structure, PDB 6VH6; pocket that contacts the DNA phosphate backbone
T1 construct: using purified EBNA1 (468–607) mixed in a 2 μl:2 μl ratio with reservoir solution; made in house
T1 sequence (P03211 468-607): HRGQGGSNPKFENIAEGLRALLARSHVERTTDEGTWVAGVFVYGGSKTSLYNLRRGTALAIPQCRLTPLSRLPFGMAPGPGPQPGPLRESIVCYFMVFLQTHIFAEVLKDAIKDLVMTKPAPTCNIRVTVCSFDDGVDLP
From the text: We determined the high-resolution crystal structure of one fragment bound to EBNA1 (Figure 4). We soaked the fragment AC37287 into preformed crystals of EBNA1 (468–607). The crystal of AC37287 diffracted to 1.3 Ångstroms and was solved by isomorphous replacement. The electron density around AC38287 is unambiguous at this resolution (Figure 4A). The aliphatic portion of AC37287 binds into a deep hydrophobic pocket made up of the hydrophobic residues I481, L520, L582, V483 and I593 (Figure 4B). The lactone is sandwiched between residues N519 and T590 within the range of a hydrogen bond of N519 (Figure 4C). This molecule binds in a region that is important for DNA binding (Figure 4D).
Crystals were grown using the vapor diffusion method in 24–48 h using purified EBNA1 (468–607) mixed in a 2 μl:2 μl ratio with reservoir solution (50 mM MES, pH 6.5, 0–150 mM NaCl, and 10 mM DTT). Crystals were transferred to a solution containing 25–30% glycerol and 0.2 μl of 50 mM of AC37287, incubated for 4 h and flash frozen for data collection. Data were collected on the 21BM beamline at the Argonne Light Source (ALS) at Argonne National Laboratory. Data were indexed, reduced, and scaled using HKL3000. The structures were solved by isomorphous replacement. Models were refined in PHENIX, version 1.17, using simulated annealing, minimization, and individual B-factor refinement. […]

[1] = molecular target: T2, EBNA1-CAC (EBNA1 DNA-binding domain) (Epstein-Barr virus, UniProt P03211, C531S/C560S/C591S/C598S); test: SPR affinity assay, EBNA1-CAC immobilized on CM5 chip via thiol coupling; parameters: species or system Epstein–Barr virus (EBV); details: Biacore S200, 1:1 interaction model, global Rmax, fragment 79-900 μM, 5% DMSO, pH 7.1
T2 construct: His-tag-SUMO (N, cleaved yes); made in house; host or cells: Escherichia coli
T2 sequence (P03211 459-607 C531S/C560S/C591S/C598S): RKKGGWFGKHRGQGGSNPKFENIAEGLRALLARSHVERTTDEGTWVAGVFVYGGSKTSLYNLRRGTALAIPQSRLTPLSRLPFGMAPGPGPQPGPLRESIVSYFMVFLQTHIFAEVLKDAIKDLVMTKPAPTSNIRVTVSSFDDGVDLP
Description: SPR experiments were performed on a Biacore™ S200 instrument (GE Healthcare). […] As an alternative, we developed a thiol coupling method to immobilize EBNA1 and LANA to the Biacore sensor chip. We synthesized a construct that expressed a version of EBNA1 and LANA DNA-binding domains with the internal cysteines mutated to serine and Cys-Ala-Cys added to the C terminus (EBNA1-CAC and LANA-CAC).
The 1000 fragments from the library were screened at a concentration of 1 mM (5% DMSO). Hits were selected on the basis of the following criteria: a relative binding response normalized with respect to the positive control, no indication that multiple fragments were bound, R > Rmax (R = Response units, Rmax = the maximum binding capacity based on control fragment) and sensorgram shapes consistent with fragment binding (rapid on and off rates). Based on these criteria, 94 EBNA1 fragments and 104 LANA fragments were selected for further validation to measure binding affinities, which were determined to range from 0.2 to >10 mM. […]
To validate fragments from the primary screen, an affinity assay was performed. […] Binding sensorgrams were processed by first subtracting the binding response recorded from the control surface (reference flow cell), followed by solvent correction. […] Affinities were assessed using a global Rmax determined by reference compounds. […]

Row | SMILES | fragment binding observed in crystal structure (EBNA1 (468–607)) | Kd [1]
1 | Cc1ccc2oc(=O)cc(O)c2c1 [AC37287] | binds in this pocket of EBNA1 | 
2 | OCCCCn1cnc2cc(Cl)c(Cl)cc21 [SPB07625] |  | 2100 µM
